# From US20100330116A1, “LIVE […] USE AS VACCINE” (The University of Queensland, priority 2004, published 2010)
# What was measured:
# [1] = system: FD436; experiment: MBC determination of nalidixic acid and rifampicin (growth on SBA plates); details: TSB, then SBA 37° C., 48 h
# [2] = system: FD436; experiment: MIC determination of nalidixic acid and rifampicin (broth dilution, Bioscreen turbidity); details: TSB, 37° C., 24 h
Compound,MBC for FD436 [1],MIC for FD436 [2]
CCn1cc(C(=O)O)c(=O)c2ccc(C)nc21 [Nalidixic acid],0.00125 % (w/v),0.00125 % (w/v)
CO[C@H]1/C=C/O[C@@]2(C)Oc3c(C)c(O)c4c(O)c(c(/C=N/N5CCN(C)CC5)c(O)c4c3C2=O)NC(=O)/C(C)=C\C=C\[C@H](C)[C@H](O)[C@@H](C)[C@@H](O)[C@@H](C)[C@H](OC(C)=O)[C@@H]1C [Rifampicin],0.0025 % (w/v),0.0025 % (w/v)
